Ends that are not written are not given here.
Test system: lactose intolerant individuals

secretin (HSDGTFTSELSRLRDSARLQRLLQGLV; ends and bridges not checked; UniProt P63298 33-59, looked up)
time after infusion until some slight symptoms of lactose intolerance started again (one severely lactose intolerant individual, one-time infusion): about 3 months | symptoms of lactose intolerance after consuming dairy and other lactose containing products (one-time intravenous infusion, 1 CU per kilogram of body weight over about 1 to 4 minutes, prolonged period of time after treatment, listed as secretion): without experiencing any of the symptoms of lactose intolerance

— patent publication US6599882B1, “Secretin and secretin pharmaceuticals for treating lactose intolerance” (priority 1999, dated 2003)
